# B1: FasL: Fas Ligand, TNFα family member which signals through Death Receptors (protein, UniProt P48023 130-281, looked up)
# Tumor necrosis factor ligand …: QIGHPSPPPEKKELRKVAHLTGKSNSRSMPLEWEDTYGIVLLSGVKYKKGGLVINETGLYFVYSKVYFRGQSCNNLPLSHKVYMRNSKYPQDLVMMEGKMMSYCTTGQMWARSSYLGAVFNLTSADHLYVNVSELSLVNFEESQTFFGLYKL
# Experiments:
# Type in all cases: cell-based
# [1] = system: HCT116 cells; assay: Cell-Titer Blue viability of cells expressing YFP or full length Core 1 treated with apoptosis inducers
# Method: To determine whether Core 1 protected against apoptosis induced by TRAIL or through other pathways, cells were treated with several different apoptosis inducers and assayed for cell viability. Fas Ligand (FasL), also a TNFα family member which signals through Death Receptors, uses the same adaptor protein FADD to induce caspase activation and apoptosis. Cells stably expressing either yellow florescent protein (YFP) or human full length Core 1 were treated with 100 ng/ml of TRAIL or 16 ng/ml of FasL for 24 hours. Cell viability was assayed using the Cell-Titer Blue assay, where conversion of the indicator dye resazurin is used to measure the metabolic capacity of cells, an indicator of cell viability. […] Cells were then treated with two compounds which induce apoptosis through non-death receptor pathways. Camptothecin inhibits DNA topoisomerase 1, ultimately leading to DNA damage and death, while Taxotere is an inhibitor of microtubule depolymerization, which prevents cell division and leads to mitotic death.
# [2] = system: HCT116 cells; assay: Annexin V apoptosis assay (FACS) after TRAIL treatment; conditions: 50 ng/ml TRAIL
# Method: To further characterize the ability of Core 1 to protect against TRAIL-induced apoptosis, the pEYK vector containing the partial cDNA of UQCRC1 isolated from the screen was used to directly infect HCT116 cells. Cells expressing dominant-negative FADD (dnFADD), which inhibits the signal from the TRAIL receptors, was used as a control. Cells were treated for 48 hours with 0, 10 or 50 ng/mL of TRAIL and assayed for Annexin V, an early marker of apoptosis [FIG. 2A]. Expression of dnFADD inhibited TRAIL-induced apoptosis, with 78% of cells Annexin V negative or non-apoptotic at 50 ng/ml TRAIL.
# To confirm that the protection observed from the partial Core 1 protein is indicative of its function, the full length human Core 1 protein was cloned into the pLenti-vector (containing a HA-tag) and used to infect HCT116 to produce a stable cell line expressing Core 1. A control cell line was prepared similarly to express Yellow Fluorescent Protein (YFP). To confirm the protein expression of full length Core 1, cells were homogenized to prepare a mitochondrial and cytoplasmic lysate and western blotted with antibodies to Core 1 [FIG. 2C]. The endogenous Core 1 is detected in the mitochondrial fraction of both YFP and Core 1 expressing cells. Exogenously expressed Core 1 is HA-tagged and is detected as a higher migrating band in the mitochondrial fraction, as well as the cytoplasmic fraction. […] Thus, Core 1 is expressed in these HCT116 stable cell lines. To determine if full length Core 1 also protects against TRAIL-induced apoptosis, cells were treated with TRAIL and assayed for apoptosis by FACS analysis for cells that were Annexin V positive or negative.
# [3] = system: HCT116 cells; assay: JC-1 mitochondrial membrane potential assay (FACS)
# Method: As Core 1 is a subunit of the mitochondrial respiratory Complex III, work was conducted to determine whether expression of Core 1 protects against mitochondrial depolarization, a critical step in mitochondrial mediated apoptosis. Changes in mitochondrial membrane potential during TRAIL treatment were studied using the JC-1 Assay Kit (Molecular Probes). JC-1 (5, 5′,6,6′,-tetrachloro-1,1′,3,3′-tetraethylbenzimidazolylcarbocyanine) is a cationic dye which has a diffuse green fluorescence in the cytoplasm. The accumulation of JC-1 in the mitochondria, which depends on intact, polarized mitochondria, results in the formation of red fluorescent aggregates. The ratio of green to red fluorescence was measured for the cells described in Example 2 above by Fluorescence-activated Cell Sorter (FACS) analysis. FACS is a method to sort cells based on specific cellular surface markers (e.g., red or green fluorescence). The above ratio is plotted as a percentage of polarized mitochondria.
# [4] = system: HCT116 cells; assay: Cytochrome c release into the cytoplasmic fraction (ELISA); conditions: 100 ng/ml TRAIL, 24 hours
# Method: HCT116 cells stably expressing YFP or human full length Core 1 were treated with 100 ng/ml TRAIL for 24 hours. Control cells stably expressing YFP or human full length Core 1 were not treated with TRAIL. The cells were then harvested. Media containing floating cells was first removed to new tubes. The remaining adherent cells were detached using a cell scraper in ice-cold PBS and added to the media containing floating cells. The cells were pelleted by centrifuging at 1000×g for 10 minutes at 4° C. and resuspended in an iso-osmotic buffer (0.3M sucrose, 10 mM Tris pH 7.5, 1 mM EDTA, EDTA-free protease tablet). After a five minute incubation on ice, the cells were lysed using dounce homogenizers until about 90% of the plasma membranes were lysed. This was done to isolate the cytoplasmic fraction. The extent of cell lysis was monitored by mixing 10 μl of lysate with trypan blue and viewed on a hemocytometer. […] The concentration of lysates was determined using either the BioRad DC protein assay (BioRad) or the BCA method (Pierce, Rockford, Ill.). To quantitatively detect cytochrome c levels, lysates were assayed for cytochrome c using a Function ELISA cytochrome c kit (Active Motif, Carlsbad, Calif.) [FIG. 3B]. In untreated cells, low baseline levels of cytochrome c were detected in the cytoplasm.
# [5] = system: HCT116 cells; assay: Western blot for caspase activation upon TRAIL stimulation; conditions: full length Core 1 vs YFP expressing HCT116; 200 ng/ml TRAIL, 24 hours
# Method: Cells stably expressing YFP or human full length Core 1 were treated for 24 hours with 200 ng/ml TRAIL, lysed, and western blotted with antibodies to several caspases. Caspase activation was detected by the cleavage of the full length pro-caspase to the smaller, active form. […] Thus, Core 1 expression inhibits the full activation of caspases 8, 9, and 3 upon TRAIL stimulation.
molecule,measurement,setting,value
CC[C@@]1(O)C(=O)OCc2c1cc1n(c2=O)Cc2cc3ccccc3nc2-1 [Camptothecin],difference in viability between cells expressing YFP or full length Core 1,[1]; 200 nM Camptothecin in dimethyl sulfoxide,No difference in viability
CC(=O)O[C@@]12CO[C@@H]1C[C@H](O)[C@@]1(C)C(=O)[C@H](O)C3=C(C)[C@@H](OC(=O)[C@H](O)[C@@H](NC(=O)OC(C)(C)C)c4ccccc4)C[C@@](O)([C@@H](OC(=O)c4ccccc4)[C@H]21)C3(C)C [Taxotere],difference in viability between cells expressing YFP or full length Core 1,[1]; 10 nM Taxotere in dimethyl sulfoxide,No difference in viability
"TRAIL: recombinant human TRAIL (BioMol), member of the TNF superfamily that induces apoptosis",cells Annexin V negative,"[2]; HCT116 expressing GFP, 48 hours",2%
same,cells Annexin V negative or non-apoptotic,"[2]; HCT116 expressing dnFADD, 48 hours",78%
same,cells Annexin V negative,"[2]; HCT116 expressing partial Core 1, 48 hours",14.5%
same,protection against TRAIL-induced apoptosis,[2]; full length Core 1 vs YFP expressing cells,2.5 fold
same,increase in protection from TRAIL induced apoptosis,[2]; partial Core 1 vs GFP expressing cells,7 fold
same,polarized mitochondria remaining,"[3]; HCT116 expressing GFP, 50 ng/ml TRAIL",7%
same,mitochondrial depolarization,"[3]; HCT116 expressing dnFADD, all concentrations of TRAIL",completely protected
same,polarized mitochondria,"[3]; HCT116 expressing partial Core 1, 50 ng/ml TRAIL",38%
same,protection from mitochondrial depolarization over GFP,"[3]; partial Core 1 vs GFP expressing cells, 50 ng/ml TRAIL",5 fold
same,increase in cytochrome c released into the cytoplasmic fraction,"[4]; HCT116 expressing YFP, vs untreated",10 fold
same,"cytochrome c released, relative to YFP cells",[4]; HCT116 expressing full length Core 1,only one-half as much
same,caspase 8 activation,[5],less active caspase 8
same,caspase 9 and caspase 3 activation,[5],reduced activation
B1,protection from FasL induced apoptosis by Core 1 expression,"[1]; Core 1 vs YFP expressing cells, 16 ng/ml FasL, 24 hours",about a three-fold protection

# Reference: patent US8329669B2, “Composition and method for treatment of tumors” (Sanofi, priority 2006, dated 2012)
